Laboratory results from patent publication US12195490B2, “STRAD-binding agents and uses thereof” (The Regents of the University of California, priority 2020, dated 2025).

Assays:
LKB1 [1] = biological target: T1, LKB1 (Homo sapiens, UniProt Q15831+Q7RTN6); assay: LKB1 kinase assay with recombinant LKB1 (LKB1 in vitro activation); format: biochemical
T1 sequence (Q15831 1-433): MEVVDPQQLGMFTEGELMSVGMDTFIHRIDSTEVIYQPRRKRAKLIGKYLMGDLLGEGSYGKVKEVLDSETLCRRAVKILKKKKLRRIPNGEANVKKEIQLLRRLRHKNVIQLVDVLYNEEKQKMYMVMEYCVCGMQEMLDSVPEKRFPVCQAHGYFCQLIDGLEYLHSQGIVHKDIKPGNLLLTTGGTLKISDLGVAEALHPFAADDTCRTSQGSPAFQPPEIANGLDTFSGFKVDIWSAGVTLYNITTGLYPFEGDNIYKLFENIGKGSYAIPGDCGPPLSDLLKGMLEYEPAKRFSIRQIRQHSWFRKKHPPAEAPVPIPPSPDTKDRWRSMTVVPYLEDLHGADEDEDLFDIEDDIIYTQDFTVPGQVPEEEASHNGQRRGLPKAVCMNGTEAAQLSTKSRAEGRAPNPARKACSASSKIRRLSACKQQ
T1 sequence (Q7RTN6 1-431): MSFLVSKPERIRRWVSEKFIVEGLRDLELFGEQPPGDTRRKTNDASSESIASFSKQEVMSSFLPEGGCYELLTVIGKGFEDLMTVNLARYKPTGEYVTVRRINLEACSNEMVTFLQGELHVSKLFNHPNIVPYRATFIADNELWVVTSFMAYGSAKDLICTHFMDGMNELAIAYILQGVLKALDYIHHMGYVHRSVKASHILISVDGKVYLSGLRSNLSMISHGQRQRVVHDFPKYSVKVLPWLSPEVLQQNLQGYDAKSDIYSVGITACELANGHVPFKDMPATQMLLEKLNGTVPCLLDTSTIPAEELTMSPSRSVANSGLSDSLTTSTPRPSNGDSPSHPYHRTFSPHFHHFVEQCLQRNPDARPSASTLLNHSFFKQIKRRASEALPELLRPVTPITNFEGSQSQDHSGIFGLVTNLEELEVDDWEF
T1 sequence (Q9Y376 1-341 partner): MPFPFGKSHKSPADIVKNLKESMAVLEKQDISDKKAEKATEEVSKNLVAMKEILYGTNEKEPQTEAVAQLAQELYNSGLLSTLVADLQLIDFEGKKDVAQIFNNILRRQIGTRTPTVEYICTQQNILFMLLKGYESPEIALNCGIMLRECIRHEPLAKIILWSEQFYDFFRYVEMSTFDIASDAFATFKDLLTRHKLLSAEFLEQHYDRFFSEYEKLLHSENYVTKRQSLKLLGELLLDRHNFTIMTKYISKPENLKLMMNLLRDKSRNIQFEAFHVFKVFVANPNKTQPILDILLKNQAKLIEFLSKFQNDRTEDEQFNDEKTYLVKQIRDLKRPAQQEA
Excerpt: Screening in human cancer cell lines has identified cell lines responsive to LKB1 activation and predictive biomarkers for compound development have been determined. Installation of a novel polar functionality specifically designed to target STRAD's unique phosphate-binding residues led to the identification of compound SU-329 which is currently progressing through efficacy models evaluating tumor growth inhibition. The terms SU-329 and SU20668-0329-01 refer to the same compound.
Small Molecule Activation of the LKB1 Tumor Suppressor. Cancer treatment has been considerably advanced by the relatively recent development of small molecules capable of inhibiting oncogenic kinase signaling, but exogenous enhancement of tumor suppressive signaling remains elusive. Here, we sought to design small molecules capable of activating the tumor suppressor kinase LKB1. Designing compounds capable of increasing kinase activity has been more structurally challenging than those aimed at inhibiting them: apart from the ATP-binding pocket, there is rarely a site that would be conducive to binding a small molecule. Unlike most protein kinases, LKB1 signals as part of an obligate trimer consisting of itself, a scaffolding protein (MO25), and a pseudokinase (STRAD). As part of its mechanism of activation, LKB1 must bind to an ATP-bound STRAD to take on its active kinase conformation. […]

ACHN cell line = assay: Drug screen of the SelleckChem kinase inhibitor library with and without SU-329, Cell-Titer Glo after 5 days; format: cell-based; details: kinase inhibitors 200 nM with and without 5 μM SU-329
Description: FIG. 8. Drug screen identifies signaling pathways that affect the impact of LKB1 activation. Drug screen of the SelleckChem kinase inhibitor library was performed in the ACHN cell line. Sensitivity to kinase inhibitors used at 200 nM with and without 5 μM of SU-329 was measured after 5 days with Cell-Titer Glo. […] The terms SU-329 and SU20668-0329-01 refer to the same compound.

LKB1 [2] = biological target: T1, LKB1; assay: in vitro LKB1 functional activity; format: biochemical; details: APA analogs
[3] = test system: most sensitive cancer cell line; assay: cell activity: CTG anti-proliferation in most sensitive cancer cell line; format: cell-based; details: APA analogs

Compound	LKB1 in vitro activation (LKB1 [1])	response of LKB1 stimulation under inhibition of GSK-3 (ACHN cell line)	response of LKB1 stimulation under inhibition of mTOR and components of the PI3K (ACHN cell line)	LKB1 % Act. Increase (LKB1 [2])	IC50 [3]
COP(=O)(CS(=O)(=O)c1ccc(NC(=O)c2nc(-c3ccc(C)cc3)cnc2N)cc1)OC [SU-329]	Single digit micro-molar	reduced the response of LKB1 stimulation	attenuated the response of LKB1 stimulation		
CO[P@@](C)(=O)CS(=O)(=O)c1ccc(NC(=O)c2nc(-c3ccc(C)cc3)cnc2N)cc1 [SU20668-0519, (R)-methyl (4-(3-amino-6-p-tolylpyrazine-2-carboxamido)phenylsulfonyl)methyl(methyl)phosphinate]				A (A=>4000%)	< 3000 nM
CO[P@](C)(=O)CS(=O)(=O)c1ccc(NC(=O)c2nc(-c3ccc(C)cc3)cnc2N)cc1 [SU20668-0520, (S)-methyl (4-(3-amino-6-p-tolylpyrazine-2-carboxamido)phenylsulfonyl)methyl(methyl)phosphinate]				A (A=>4000%)	< 3000 nM
CCO[P@](=O)(CC)CS(=O)(=O)c1ccc(NC(=O)c2nc(-c3ccc(C)cc3)cnc2N)cc1 [SU20668-0521, (R)-ethyl (4-(3-amino-6-p-tolylpyrazine-2-carboxamido)phenylsulfonyl)methyl(ethyl)phosphinate]				A (A=>4000%)	< 3000 nM
CCO[P@@](=O)(CC)CS(=O)(=O)c1ccc(NC(=O)c2nc(-c3ccc(C)cc3)cnc2N)cc1 [SU20668-0522, (S)-ethyl (4-(3-amino-6-p-tolylpyrazine-2-carboxamido)phenylsulfonyl)methyl(ethyl)phosphinate]				B (B=399-2000%)	< 3000 nM
CC(=O)NS(=O)(=O)c1ccc(NC(=O)c2nc(-c3cc(F)ccc3C#N)cnc2N)cc1 [SU20668-0371, N-(4-(N-acetylsulfamoyl)phenyl)-3-amino-6-(2-cyano-5-fluorophenyl)pyrazine-2-carboxamide]				A (A=>4000%)	3000 to 50000 nM
Cc1ccc(-c2cnc(N)c(C(=O)Nc3ccc(S(=O)(=O)NC4COC4)cc3)n2)cc1 [SU20668-0468, 3-amino-N-(4-(N-oxetan-3-ylsulfamoyl)phenyl)-6-p-tolylpyrazine-2-carboxamide]				C (C=199-1000%)	< 3000 nM
Cc1ccc(-c2cnc(N)c(C(=O)Nc3ccc(S(N)(=O)=O)cc3)n2)cc1 [SU20668-0197, 3-amino-N-(4-sulfamoylphenyl)-6-p-tolylpyrazine-2-carboxamide]				B (B=399-2000%)	< 3000 nM
CCOP(=O)(CC)CS(=O)(=O)c1ccc(NC(=O)c2nc(-c3ccc(C)cc3)cnc2N)cc1 (centres unmarked) [SU20668-0515, ethyl (4-(3-amino-6-p-tolylpyrazine-2-carboxamido)phenylsulfonyl)methyl(ethyl)phosphinate]				B (B=399-2000%)	< 3000 nM
COP(=O)(CS(=O)(=O)c1ccc(NC(=O)c2nc(-c3ccc(C)cc3)cnc2N)cc1)OC [SU20668-0329, dimethyl (4-(3-amino-6-p-tolylpyrazine-2-carboxamido)phenylsulfonyl)methylphosphonate]				A (A=>4000%)	< 3000 nM
CC(=O)N[S@SP3](=O)(=O)c1ccc(NC(=O)c2nc(-c3ccc(C)cc3)cnc2N)cc1 [SU20668-0314, N-(4-(N-acetylsulfamoyl)phenyl)-3-amino-6-p-tolylpyrazine-2-carboxamide]				C (C=199-1000%)	3000 to 50000 nM
